Measured values from US8415351B2 (priority 2007, dated 2013).
Read-outs that look alike come from different tables or passages of the source.

What was measured:
[1] = tested on: genotype 1b-Con1 subgenomic replicon cell line; assay: microbe, parasite or virus in culture; type: cell-based, HCV; conditions: read-out: EC50 1b
[2] = tested on: genotype 1a-H77 subgenomic replicon cell line; assay: microbe, parasite or virus in culture; type: cell-based, HCV; conditions: read-out: EC50 1a

**Q.** Which results are given for COc1c(C=C(F)c2ccc(NS(C)(=O)=O)cc2)cc(N2CCC(=O)NC2=O)cc1C(C)(C)C (racemic) [IA-L1-1.21, N-(4-(2-(3-tert-butyl-5-(2,4-dioxotetrahydropyrimidin-1(2H)-yl)-2-methoxyphenyl)-1-fluorovinyl)phenyl)methanesulfonamide]?
**A.** EC50 ([1]; Hepatitis C virus): < 10 nM; EC50 ([2]; Hepatitis C virus): < 10 nM

**Q.** What does the source list for COc1c(-c2nc3cc(NS(C)(=O)=O)ccc3[nH]2)cc(N2CCC(=O)NC2=O)cc1C(C)(C)C [IA-L0-2.1, N-(2-(3-tert-butyl-5-(2,4-dioxotetrahydropyrimidin-1(2H)-yl)-2-methoxyphenyl)-1H-benzo[d]imidazol-5-yl)methanesulfonamide]?
**A.** EC50 ([1]; Hepatitis C virus): > 1000 nM; EC50 ([2]; Hepatitis C virus): > 1000 nM

**Q.** With COc1c(-c2nc3ccc(NS(C)(=O)=O)cc3s2)cc(N2CCC(=O)NC2=O)cc1C(C)(C)C [IA-L0-2.2, N-(2-(3-tert-butyl-5-(2,4-dioxotetrahydropyrimidin-1(2H)-yl)-2-methoxyphenyl)benzo[d]thiazol-6-yl)methanesulfonamide] as the compound, how does the EC50 ([1]; Hepatitis C virus) read?
**A.** 10 to 100 nM

**Q.** What about the EC50 ([2]; Hepatitis C virus) of the same compound?
**A.** 100 to 1000 nM

**Q.** How did the EC50 ([1]; Hepatitis C virus) turn out when COc1c(-c2nc3ccccc3s2)cc(N2CCC(=O)NC2=O)cc1C(C)(C)C [IA-L0-2.3, 1-(3-(benzo[d]thiazol-2-yl)-5-tert-butyl-4-methoxyphenyl)dihydro pyrimidine-2,4(1H,3H)-dione] was run?
**A.** 100 to 1000 nM

**Q.** What about the EC50 ([2]; Hepatitis C virus) of the same compound?
**A.** 100 to 1000 nM

**Q.** With COc1c(-c2nc3cc(NS(C)(=O)=O)ccc3s2)cc(N2CCC(=O)NC2=O)cc1C(C)(C)C [IA-L0-2.4, N-(2-(3-tert-butyl-5-(2,4-dioxotetrahydropyrimidin-1(2H)-yl)-2-methoxyphenyl)benzo[d]thiazol-5-yl)methanesulfonamide] as the compound, how does the EC50 ([1]; Hepatitis C virus) read?
**A.** 100 to 1000 nM

**Q.** What about the EC50 ([2]; Hepatitis C virus) of the same compound?
**A.** > 1000 nM

**Q.** What does the source list for COc1c(-c2nc3ccc(NS(C)(=O)=O)cc3o2)cc(N2CCC(=O)NC2=O)cc1C(C)(C)C [IA-L0-2.5, N-(2-(3-tert-butyl-5-(2,4-dioxotetrahydropyrimidin-1(2H)-yl)-2-methoxyphenyl)benzo[d]oxazol-6-yl)methanesulfonamide]?
**A.** EC50 ([1]; Hepatitis C virus): > 1000 nM; EC50 ([2]; Hepatitis C virus): > 1000 nM

**Q.** Which EC50 ([1]; Hepatitis C virus) does the source give for COc1c(-c2nc3ccc([N+](=O)[O-])cc3o2)cc(N2CCC(=O)NC2=O)cc1C(C)(C)C [IA-L0-2.6, 1-(3-tert-butyl-4-methoxy-5-(6-nitrobenzo[d]oxazol-2-yl)phenyl) dihydropyrimidine-2,4(1H,3H)-dione] here?
**A.** > 1000 nM

**Q.** And the EC50 ([2]; Hepatitis C virus)?
**A.** > 1000 nM

**Q.** COc1c(-c2nc3cc([N+](=O)[O-])ccc3o2)cc(N2CCC(=O)NC2=O)cc1C(C)(C)C [IA-L0-2.7, 1-(3-tert-butyl-4-methoxy-5-(5-nitrobenzo[d]oxazol-2-yl)phenyl) dihydropyrimidine-2,4(1H,3H)-dione] was tested. Which EC50 ([1]; Hepatitis C virus) did it give?
**A.** 100 to 1000 nM

**Q.** What about the EC50 ([2]; Hepatitis C virus) of the same compound?
**A.** > 1000 nM

**Q.** COc1c(-c2nc3cc(NS(C)(=O)=O)ccc3o2)cc(N2CCC(=O)NC2=O)cc1C(C)(C)C [IA-L0-2.8, N-(2-(3-tert-butyl-5-(2,4-dioxotetrahydropyrimidin-1(2H)-yl)-2-methoxyphenyl)benzo[d]oxazol-5-yl)methanesulfonamide] was tested. Which EC50 ([1]; Hepatitis C virus) did it give?
**A.** 10 to 100 nM

**Q.** And the EC50 ([2]; Hepatitis C virus)?
**A.** 100 to 1000 nM

**Q.** COc1c(-c2ccc3cc(NS(C)(=O)=O)ccc3c2)cc(N2CCC(=O)NC2=O)cc1C(C)(C)C [IA-L0-2.9, N-(6-(3-tert-butyl-5-(2,4-dioxotetrahydropyrimidin-1(2H)-yl)-2-methoxyphenyl)naphthalen-2-yl)methanesulfonamide] was tested. Which EC50 ([1]; Hepatitis C virus) did it give?
**A.** < 10 nM

**Q.** What about the EC50 ([2]; Hepatitis C virus) of the same compound?
**A.** < 10 nM

**Q.** Which results are given for COc1c(/C=C(\Cl)c2ccc(NS(C)(=O)=O)cc2)cc(N2CCC(=O)NC2=O)cc1C(C)(C)C [IA-L1-1.3, (Z)—N-(4-(2-(3-tert-butyl-5-(2,4-dioxotetrahydropyrimidin-1(2H)-yl)-2-methoxyphenyl)-1-chlorovinyl)phenyl)methanesulfonamide]?
**A.** EC50 ([1]; Hepatitis C virus): < 10 nM; EC50 ([2]; Hepatitis C virus): 10 to 100 nM

**Q.** COc1c(/C=C(\F)c2ccc(NS(C)(=O)=O)cc2)cc(N2CCC(=O)NC2=O)cc1C(C)(C)C [IA-L1-1.4, (Z)—N-(4-(2-(3-tert-butyl-5-(2,4-dioxotetrahydropyrimidin-1(2H)-yl)-2-methoxyphenyl)-1-fluorovinyl)phenyl)methanesulfonamide] was tested. Which EC50 ([1]; Hepatitis C virus) did it give?
**A.** < 10 nM

**Q.** And the EC50 ([2]; Hepatitis C virus)?
**A.** < 10 nM

**Q.** How did the EC50 ([1]; Hepatitis C virus) turn out when COc1c(/C=C(/F)c2ccc(NS(C)(=O)=O)cc2)cc(N2CCC(=O)NC2=O)cc1C(C)(C)C [IA-L1-1.5, (E)-N-(4-(2-(3-tert-butyl-5-(2,4-dioxotetrahydropyrimidin-1(2H)-yl)-2-methoxyphenyl)-1-fluorovinyl)phenyl)methanesulfonamide] was run?
**A.** < 10 nM

**Q.** What about the EC50 ([2]; Hepatitis C virus) of the same compound?
**A.** 10 to 100 nM

**Q.** Which EC50 ([1]; Hepatitis C virus) does the source give for COc1c(/C=C(\C)c2ccc(NS(C)(=O)=O)cc2)cc(N2CCC(=O)NC2=O)cc1C(C)(C)C [IA-L1-1.6, (E)-N-(4-(1-(3-tert-butyl-5-(2,4-dioxotetrahydropyrimidin-1(2H)-yl)-2-methoxyphenyl)prop-1-en-2-yl)phenyl)methanesulfonamide] here?
**A.** 10 to 100 nM

**Q.** And the EC50 ([2]; Hepatitis C virus)?
**A.** 10 to 100 nM

**Q.** COc1c(/C=C/c2ccc(NS(C)(=O)=O)cc2)cc(N2CCC(=O)NC2=O)cc1C(C)(C)C [IA-L1-1.9, (E)-N-(4-(3-tert-butyl-5-(2,4-dioxotetrahydropyrimidin-1(2H)-yl)-2-methoxystyryl)phenyl)methanesulfonamide] was tested. Which EC50 ([1]; Hepatitis C virus) did it give?
**A.** < 10 nM

**Q.** And the EC50 ([2]; Hepatitis C virus)?
**A.** 10 to 100 nM

**Q.** What does the source list for COc1c(/C=C/c2ccc(N(C(C)=O)S(C)(=O)=O)cc2)cc(N2CCC(=O)NC2=O)cc1C(C)(C)C [IA-L1-1.11, (E)-N-(4-(3-tert-butyl-5-(2,4-dioxotetrahydropyrimidin-1(2H)-yl)-2-methoxystyryl)phenyl)-N-(methylsulfonyl)acetamide]?
**A.** EC50 ([1]; Hepatitis C virus): < 10 nM; EC50 ([2]; Hepatitis C virus): < 10 nM

**Q.** What does the source list for COc1c(/C=C/c2ccc(F)cc2)cc(N2CCC(=O)NC2=O)cc1C(C)(C)C [IA-L1-1.12, (E)-1-(3-tert-butyl-5-(4-fluorostyryl)-4-methoxyphenyl) dihydropyrimidine-2,4(1H,3H)-dione]?
**A.** EC50 ([1]; Hepatitis C virus): 100 to 1000 nM; EC50 ([2]; Hepatitis C virus): 100 to 1000 nM

**Q.** How did the EC50 ([1]; Hepatitis C virus) turn out when COc1c(/C=C/c2ccc(N)cc2)cc(N2CCC(=O)NC2=O)cc1C(C)(C)C [IA-L1-1.13, (E)-1-(3-(4-aminostyryl)-5-tert-butyl-4-methoxyphenyl)dihydropyrimidine-2,4(1H,3H)-dione] was run?
**A.** 100 to 1000 nM

**Q.** And the EC50 ([2]; Hepatitis C virus)?
**A.** > 1000 nM

**Q.** Which results are given for COc1ccc(/C=C/c2cc(N3CCC(=O)NC3=O)cc(C(C)(C)C)c2OC)cc1 [IA-L1-1.14, (E)-1-(3-tert-butyl-4-methoxy-5-(4-methoxystyryl)phenyl) dihydropyrimidine-2,4(1H,3H)-dione]?
**A.** EC50 ([1]; Hepatitis C virus): > 1000 nM; EC50 ([2]; Hepatitis C virus): > 1000 nM

**Q.** How did the EC50 ([1]; Hepatitis C virus) turn out when CC(C)(C)c1cc(/C=C/c2ccc(NS(C)(=O)=O)cc2)cc(N2CCC(=O)NC2=O)c1 [IA-L1-1.16, (E)-N-(4-(3-tert-butyl-5-(2,4-dioxotetrahydropyrimidin-1(2H)-yl)styryl)phenyl)methanesulfonamide] was run?
**A.** 10 to 100 nM

**Q.** And the EC50 ([2]; Hepatitis C virus)?
**A.** 10 to 100 nM

**Q.** Which EC50 ([1]; Hepatitis C virus) does the source give for CO/C(=C\c1cc(N2CCC(=O)NC2=O)cc(C(C)(C)C)c1OC)c1ccc(NS(C)(=O)=O)cc1 [IA-L1-1.17, (Z)—N-(4-(2-(3-tert-butyl-5-(2,4-dioxotetrahydropyrimidin-1(2H)-yl)-2-methoxyphenyl)-1-methoxyvinyl)phenyl)methanesulfonamide] here?
**A.** 10 to 100 nM

**Q.** What about the EC50 ([2]; Hepatitis C virus) of the same compound?
**A.** 10 to 100 nM

**Q.** COc1c(/C=C/c2ccccc2)cc(N2CCC(=O)NC2=O)cc1C(C)(C)C [IA-L1-1.18, (E)-1-(3-tert-butyl-4-methoxy-5-styrylphenyl)dihydro-pyrimidine-2,4(1H,3H)-dione] was tested. Which EC50 ([1]; Hepatitis C virus) did it give?
**A.** 100 to 1000 nM

**Q.** What about the EC50 ([2]; Hepatitis C virus) of the same compound?
**A.** 100 to 1000 nM

**Q.** With COc1c(/C=C/c2ccc([N+](=O)[O-])cc2)cc(N2CCC(=O)NC2=O)cc1C(C)(C)C [IA-L1-1.22, (E)-1-(3-tert-butyl-4-methoxy-5-(4-nitrostyryl)phenyl)dihydropyrimidine-2,4(1H,3H)-dione] as the compound, how does the EC50 ([1]; Hepatitis C virus) read?
**A.** 100 to 1000 nM

**Q.** What about the EC50 ([2]; Hepatitis C virus) of the same compound?
**A.** > 1000 nM

**Q.** How did the EC50 ([1]; Hepatitis C virus) turn out when COc1c(/C=C(\Cl)c2ccc([N+](=O)[O-])cc2)cc(N2CCC(=O)NC2=O)cc1C(C)(C)C [IA-L1-1.23, 1-{3-tert-butyl-5-[(Z)-2-chloro-2-(4-nitro-phenyl)-vinyl]-4-methoxy-phenyl}-dihydro-pyrimidine-2,4-dione] was run?
**A.** > 1000 nM

**Q.** And the EC50 ([2]; Hepatitis C virus)?
**A.** > 1000 nM

**Q.** Which results are given for COc1c(/C=C(\C)c2ccc([N+](=O)[O-])cc2)cc(N2CCC(=O)NC2=O)cc1C(C)(C)C [IA-L1-1.24, 1-{3-tert-butyl-4-methoxy-5-[(E)-2-(4-nitro-phenyl)-propenyl]-phenyl}-dihydro-pyrimidine-2,4-dione]?
**A.** EC50 ([1]; Hepatitis C virus): > 1000 nM; EC50 ([2]; Hepatitis C virus): > 1000 nM

**Q.** COc1c(/C=C/c2ccc(NS(C)(=O)=O)c(F)c2)cc(N2CCC(=O)NC2=O)cc1C(C)(C)C [IA-L1-1.26, (E)-N-(4-(3-tert-butyl-5-(2,4-dioxotetrahydropyrimidin-1(2H)-yl)-2-methoxystyryl)-2-fluorophenyl)methanesulfonamide] was tested. Which EC50 ([1]; Hepatitis C virus) did it give?
**A.** 10 to 100 nM

**Q.** What about the EC50 ([2]; Hepatitis C virus) of the same compound?
**A.** 10 to 100 nM

**Q.** CC(C)(C)c1cc(NC(=O)c2ccc(NS(C)(=O)=O)cc2)cc(N2CCC(=O)NC2=O)c1 [IA-L3-1.84, N-(3-tert-butyl-5-(2,4-dioxotetrahydropyrimidin-1(2H)-yl)phenyl)-4-(methylsulfonamido) benzamide] was tested. Which EC50 ([1]; genotype 1b-Con1 replicon, luciferase reporter) did it give?
**A.** > 1000 nM

**Q.** What about the EC50 ([2]; genotype 1a-H77 replicon, luciferase reporter) of the same compound?
**A.** > 1000 nM

**Q.** COc1c(-c2ccc3c(c2)CC/C3=N\NS(C)(=O)=O)cc(-n2ccc(=O)[nH]c2=O)cc1C(C)(C)C [IB-L0-2.4, (E)-N′-(5-(3-tert-butyl-5-(2,4-dioxo-3,4-dihydropyrimidin-1(2H)-yl)-2-methoxyphenyl)-2,3-dihydro-1H-inden-1-ylidene)methanesulfonohydrazide] was tested. Which EC50 ([1]; Hepatitis C virus) did it give?
**A.** < 10 nM

**Q.** For CC(C)(C)c1cc(-c2ccc3cc(NS(C)(=O)=O)ccc3c2)cc(-n2ccc(=O)[nH]c2=O)c1 [IB-L0-2.8, N-(6-(3-tert-butyl-5-(2,4-dioxo-3,4-dihydropyrimidin-1(2H)-yl)phenyl)naphthalen-2-yl)methanesulfonamide], which EC50 ([1]; Hepatitis C virus) is on record?
**A.** 10 to 100 nM

**Q.** Which EC50 ([1]; Hepatitis C virus) does the source give for COc1c(/C=C/c2ccc(NS(C)(=O)=O)cc2)cc(-n2cc(F)c(=O)[nH]c2=O)cc1C(C)(C)C [IB-L1-1.2, (E)-N-(4-(3-tert-butyl-5-(5-fluoro-2,4-dioxo-3,4-dihydro-pyrimidin-1(2H)-yl)-2-methoxystyryl)phenyl)methanesulfonamide] here?
**A.** 10 to 100 nM
